This is an account of results in patent EP4722207A1, “OXOISOINDOLINYL-SUBSTITUTED TETRAHYDROPYRIMIDINEDIONE DERIVATIVE AND USE THEREOF” (Gluetacs Therapeutics (Shanghai) Co., Ltd., priority 2023, dated 2024).

In assay [1] the target is T1, WEE1 (Homo sapiens, UniProt P30291+Q96SW2).
T1 construct: effects of the compounds of the present disclosure on the expression of target proteins in cells; endogenous in cells; host or cells: human PBMCs (hPBMCs)
In words: Western-blot assay, substrate protein degradation in hPBMCs: WEE1. The format is cell-based. To be noted: 24 hours of compound treatment, 50 nM and 500 nM.

For assay [2], the target named is T2, IKZF1 (Homo sapiens, UniProt Q13422+Q96SW2).
T2 construct: effects of the compounds of the present disclosure on the expression of target proteins in cells; endogenous in cells; host or cells: human PBMCs (hPBMCs)
In words: Western-blot assay, substrate protein degradation in hPBMCs: IKZF1. The format is cell-based. Conditions: 24 hours of compound treatment, 50 nM and 500 nM.

The target in assay [3] is T3, IKZF2 (Homo sapiens, UniProt Q96SW2+Q9UKS7).
T3 construct: effects of the compounds of the present disclosure on the expression of target proteins in cells; endogenous in cells; host or cells: human PBMCs (hPBMCs)
In words: Western-blot assay, substrate protein degradation in hPBMCs: IKZF2. The format is cell-based. To be noted: 24 hours of compound treatment, 50 nM and 500 nM.

The target in assay [4] is T4, IKZF3 (Homo sapiens, UniProt Q96SW2+Q9UKT9).
T4 construct: effects of the compounds of the present disclosure on the expression of target proteins in cells; endogenous in cells; host or cells: human PBMCs (hPBMCs)
In words: Western-blot assay, substrate protein degradation in hPBMCs: IKZF3. The format is cell-based. To be noted: 24 hours of compound treatment, 50 nM and 500 nM.

For assay [5], the target named is T5, CK1α (Homo sapiens, UniProt P48729+Q96SW2).
T5 construct: effects of the compounds of the present disclosure on the expression of target proteins in cells; endogenous in cells; host or cells: human PBMCs (hPBMCs)
In words: Western-blot assay, substrate protein degradation in hPBMCs: CK1α. To be noted: 24 hours of compound treatment, 50 nM and 500 nM. The format is cell-based.

For assay [6], the target named is T6, GSPT1 (Homo sapiens, UniProt P15170+Q96SW2).
T6 construct: effects of the compounds of the present disclosure on the expression of target proteins in cells; endogenous in cells; host or cells: human PBMCs (hPBMCs)
In words: Western-blot assay, substrate protein degradation in hPBMCs: GSPT1. The format is cell-based. Conditions: 24 hours of compound treatment, 50 nM and 500 nM.

The test system of assay [7] is MM.1S. In words: Cell viability assay (CellTiter-Meiluncell Luminescent), tumor cell proliferation, MM.1S. To be noted: Homo sapiens, MM1.S, 96 h; for inhibition at 0.01 µM: read-out: Inhibition Rate at 10 nM (%); for inhibition at 0.5 µM: read-out: Inhibition Rate at 500 nM (%).
For assay [8], the system named is H2228. In words: Cell viability assay (CellTiter-Meiluncell Luminescent), tumor cell proliferation, H2228. Conditions: Homo sapiens, NCI-H2228, 96 h; for inhibition at 0.01 µM: read-out: Inhibition Rate at 10 nM (%); for inhibition at 0.5 µM: read-out: Inhibition Rate at 500 nM (%).
Assay [9] deals with MV-4-11. In words: Cell viability assay (CellTiter-Meiluncell Luminescent), tumor cell proliferation, MV-4-11. To be noted: Homo sapiens, MV4-11, 96 h; for inhibition at 0.01 µM: read-out: Inhibition Rate at 10 nM (%); for inhibition at 0.5 µM: read-out: Inhibition Rate at 500 nM (%).
Assay [10] relates to MDA-MB-231. In words: Cell viability assay (CellTiter-Meiluncell Luminescent), tumor cell proliferation, MDA-MB-231. Conditions: Homo sapiens, MDA-MB-231, 96 h; for inhibition at 0.01 µM: read-out: Inhibition Rate at 10 nM (%); for inhibition at 0.5 µM: read-out: Inhibition Rate at 500 nM (%).
For assay [11], the system named is H292. In words: Cell viability assay (CellTiter-Meiluncell Luminescent), tumor cell proliferation, H292. Conditions: Homo sapiens, NCI-H292, 96 h; for inhibition at 0.01 µM: read-out: Inhibition Rate at 10 nM (%); for inhibition at 0.5 µM: read-out: Inhibition Rate at 500 nM (%).

T1 sequence (P30291 whole entry): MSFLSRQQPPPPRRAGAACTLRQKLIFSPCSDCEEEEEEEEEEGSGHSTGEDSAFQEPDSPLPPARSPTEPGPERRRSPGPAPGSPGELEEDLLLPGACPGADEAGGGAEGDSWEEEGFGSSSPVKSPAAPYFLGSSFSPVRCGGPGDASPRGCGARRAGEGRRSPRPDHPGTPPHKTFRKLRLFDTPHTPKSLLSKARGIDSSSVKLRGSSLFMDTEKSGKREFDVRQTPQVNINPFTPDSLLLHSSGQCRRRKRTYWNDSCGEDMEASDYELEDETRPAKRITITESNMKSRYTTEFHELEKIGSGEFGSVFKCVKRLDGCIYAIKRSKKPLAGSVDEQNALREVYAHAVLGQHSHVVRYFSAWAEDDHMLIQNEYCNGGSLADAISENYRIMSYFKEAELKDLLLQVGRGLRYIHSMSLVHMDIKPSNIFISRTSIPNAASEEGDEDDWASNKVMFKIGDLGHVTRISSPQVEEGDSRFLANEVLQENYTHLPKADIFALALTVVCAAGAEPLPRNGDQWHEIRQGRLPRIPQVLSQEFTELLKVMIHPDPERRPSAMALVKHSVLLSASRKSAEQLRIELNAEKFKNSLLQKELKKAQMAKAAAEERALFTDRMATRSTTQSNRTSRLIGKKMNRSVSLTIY
T1 sequence (Q96SW2 whole entry): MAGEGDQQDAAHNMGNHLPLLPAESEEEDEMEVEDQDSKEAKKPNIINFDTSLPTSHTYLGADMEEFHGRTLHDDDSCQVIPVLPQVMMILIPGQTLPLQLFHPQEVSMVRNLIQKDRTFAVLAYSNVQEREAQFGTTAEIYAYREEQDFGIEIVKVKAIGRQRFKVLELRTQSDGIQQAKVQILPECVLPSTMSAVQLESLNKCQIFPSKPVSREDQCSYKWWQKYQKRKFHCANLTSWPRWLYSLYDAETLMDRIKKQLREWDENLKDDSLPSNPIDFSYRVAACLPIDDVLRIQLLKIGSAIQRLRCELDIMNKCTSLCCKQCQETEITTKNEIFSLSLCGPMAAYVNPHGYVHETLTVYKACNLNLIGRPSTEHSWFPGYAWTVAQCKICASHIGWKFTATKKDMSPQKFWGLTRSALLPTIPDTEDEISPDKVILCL
T1 sequence (Q16531 whole entry partner): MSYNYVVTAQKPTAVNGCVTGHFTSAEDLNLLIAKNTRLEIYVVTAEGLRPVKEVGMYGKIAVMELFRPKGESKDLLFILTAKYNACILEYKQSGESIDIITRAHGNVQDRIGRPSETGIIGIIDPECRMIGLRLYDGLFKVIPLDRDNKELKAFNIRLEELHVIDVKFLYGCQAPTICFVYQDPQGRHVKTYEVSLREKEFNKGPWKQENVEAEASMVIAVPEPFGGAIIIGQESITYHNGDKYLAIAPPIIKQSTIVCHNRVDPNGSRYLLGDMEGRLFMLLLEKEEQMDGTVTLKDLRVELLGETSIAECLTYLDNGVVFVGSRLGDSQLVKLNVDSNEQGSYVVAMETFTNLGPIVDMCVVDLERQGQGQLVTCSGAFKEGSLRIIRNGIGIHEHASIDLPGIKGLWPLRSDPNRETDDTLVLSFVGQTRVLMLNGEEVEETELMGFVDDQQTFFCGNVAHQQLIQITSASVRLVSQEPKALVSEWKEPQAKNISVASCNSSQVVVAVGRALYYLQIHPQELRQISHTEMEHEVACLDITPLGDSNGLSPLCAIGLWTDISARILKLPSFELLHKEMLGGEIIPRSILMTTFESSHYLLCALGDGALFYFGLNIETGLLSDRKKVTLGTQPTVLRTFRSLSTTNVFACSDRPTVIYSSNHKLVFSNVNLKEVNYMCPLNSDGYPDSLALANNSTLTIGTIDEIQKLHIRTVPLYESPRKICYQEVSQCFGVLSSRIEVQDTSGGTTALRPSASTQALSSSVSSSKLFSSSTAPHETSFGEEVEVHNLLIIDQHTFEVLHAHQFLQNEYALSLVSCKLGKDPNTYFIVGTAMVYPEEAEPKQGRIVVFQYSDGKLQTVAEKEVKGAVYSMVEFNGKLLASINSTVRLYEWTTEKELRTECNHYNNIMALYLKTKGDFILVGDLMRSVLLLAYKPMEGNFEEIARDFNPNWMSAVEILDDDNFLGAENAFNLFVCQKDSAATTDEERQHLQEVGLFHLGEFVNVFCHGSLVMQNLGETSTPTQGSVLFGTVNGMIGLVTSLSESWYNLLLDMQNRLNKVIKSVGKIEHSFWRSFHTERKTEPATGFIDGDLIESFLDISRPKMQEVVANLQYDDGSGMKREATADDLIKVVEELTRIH
T2 sequence (Q13422 whole entry): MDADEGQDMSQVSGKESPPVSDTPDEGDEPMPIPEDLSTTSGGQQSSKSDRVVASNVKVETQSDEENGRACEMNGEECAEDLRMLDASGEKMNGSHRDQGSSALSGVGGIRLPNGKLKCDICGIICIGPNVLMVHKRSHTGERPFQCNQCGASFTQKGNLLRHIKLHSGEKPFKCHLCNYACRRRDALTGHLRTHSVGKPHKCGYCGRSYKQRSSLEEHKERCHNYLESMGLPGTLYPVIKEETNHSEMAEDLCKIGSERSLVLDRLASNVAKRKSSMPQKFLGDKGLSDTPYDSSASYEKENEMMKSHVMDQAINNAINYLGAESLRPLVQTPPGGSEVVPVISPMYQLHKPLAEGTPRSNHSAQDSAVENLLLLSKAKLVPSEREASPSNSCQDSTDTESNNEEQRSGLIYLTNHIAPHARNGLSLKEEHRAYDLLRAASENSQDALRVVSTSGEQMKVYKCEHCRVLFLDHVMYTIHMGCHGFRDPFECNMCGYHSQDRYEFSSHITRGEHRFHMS
T2 sequence (Q96SW2 whole entry): as the sequence (Q96SW2 whole entry) above
T2 sequence (Q16531 whole entry partner): as the sequence (Q16531 whole entry partner) above
T6 sequence (P15170 whole entry): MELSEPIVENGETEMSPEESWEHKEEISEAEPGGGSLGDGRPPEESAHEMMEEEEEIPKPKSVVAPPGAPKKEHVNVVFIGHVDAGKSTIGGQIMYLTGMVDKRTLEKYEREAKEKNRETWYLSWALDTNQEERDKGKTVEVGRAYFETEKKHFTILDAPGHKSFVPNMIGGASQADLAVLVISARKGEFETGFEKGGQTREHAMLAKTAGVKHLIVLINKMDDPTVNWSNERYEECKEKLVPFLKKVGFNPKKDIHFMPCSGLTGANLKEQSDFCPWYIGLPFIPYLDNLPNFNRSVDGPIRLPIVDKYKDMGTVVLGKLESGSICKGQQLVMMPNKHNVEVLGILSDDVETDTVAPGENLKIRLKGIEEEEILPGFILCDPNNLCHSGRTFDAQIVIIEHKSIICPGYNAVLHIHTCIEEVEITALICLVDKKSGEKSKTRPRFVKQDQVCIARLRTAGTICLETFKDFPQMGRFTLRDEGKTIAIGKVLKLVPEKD
T6 sequence (Q96SW2 whole entry): as the sequence (Q96SW2 whole entry) above
T6 sequence (Q16531 whole entry partner): as the sequence (Q16531 whole entry partner) above
T5 sequence (P48729 whole entry): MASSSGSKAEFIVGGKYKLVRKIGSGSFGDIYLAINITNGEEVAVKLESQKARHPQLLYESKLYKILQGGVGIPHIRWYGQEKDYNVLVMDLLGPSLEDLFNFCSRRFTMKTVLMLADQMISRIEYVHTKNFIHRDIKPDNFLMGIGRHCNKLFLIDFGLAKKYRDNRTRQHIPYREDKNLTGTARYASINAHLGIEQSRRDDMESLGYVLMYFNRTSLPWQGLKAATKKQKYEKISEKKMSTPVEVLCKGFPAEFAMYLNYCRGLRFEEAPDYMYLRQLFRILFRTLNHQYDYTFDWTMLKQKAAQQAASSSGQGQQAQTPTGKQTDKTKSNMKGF
T5 sequence (Q96SW2 whole entry): as the sequence (Q96SW2 whole entry) above
T5 sequence (Q16531 whole entry partner): as the sequence (Q16531 whole entry partner) above
T3 sequence (Q9UKS7 whole entry): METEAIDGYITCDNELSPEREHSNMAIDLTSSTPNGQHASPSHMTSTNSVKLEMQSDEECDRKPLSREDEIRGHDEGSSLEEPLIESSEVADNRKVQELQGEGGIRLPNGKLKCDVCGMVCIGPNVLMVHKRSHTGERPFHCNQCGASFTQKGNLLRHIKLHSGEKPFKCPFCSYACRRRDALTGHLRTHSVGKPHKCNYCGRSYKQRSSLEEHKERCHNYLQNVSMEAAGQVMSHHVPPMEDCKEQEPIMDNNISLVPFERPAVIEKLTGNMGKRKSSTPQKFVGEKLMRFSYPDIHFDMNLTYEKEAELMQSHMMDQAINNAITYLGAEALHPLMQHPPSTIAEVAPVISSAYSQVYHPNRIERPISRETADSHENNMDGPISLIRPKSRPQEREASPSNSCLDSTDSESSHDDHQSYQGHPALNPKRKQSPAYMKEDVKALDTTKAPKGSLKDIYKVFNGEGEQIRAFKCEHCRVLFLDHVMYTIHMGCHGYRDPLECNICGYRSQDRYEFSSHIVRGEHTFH
T3 sequence (Q96SW2 whole entry): as the sequence (Q96SW2 whole entry) above
T3 sequence (Q16531 whole entry partner): as the sequence (Q16531 whole entry partner) above

One may read the inhibition as the change of the read-out against control, counted positive when it falls. As to `O=C1CCN(N2Cc3cc(CN4CC=C(c5cccc(Cl)c5Cl)CC4)ccc3C2=O)C(=O)N1` [GT-08054, 1-(5-((4-(2,3-dichlorophenyl)-3,6-dihydropyridin-1(2H)-yl)methyl)-1-oxoisoindolin-2-yl)dihydropyrimidine-2,4(1H,3H)-dione], the “substrate protein remaining % WEE1” value in assay [1] was “A (0% ≤ substrate protein remaining % ≤ 80%)”. The “substrate protein remaining % IKZF1” value in [2] is “A (0% ≤ substrate protein remaining % ≤ 80%)”. In addition, the “substrate protein remaining % IKZF2” value in assay [3] was “A (0% ≤ substrate protein remaining % ≤ 80%)”. The “substrate protein remaining % IKZF3” value in [4] is on record as “A (0% ≤ substrate protein remaining % ≤ 80%)”. Further, the “substrate protein remaining % CK1α” value in [5] was “A (0% ≤ substrate protein remaining % ≤ 80%)”. Further, the “substrate protein remaining % GSPT1” value in assay [6] was “A (0% ≤ substrate protein remaining % ≤ 80%)”. The inhibition at 0.01 µM was 5 to 10% in [7], 20 to 25% in [8], 18 to 25% in [9] and 25 to 40% in assay [10]. In addition, the inhibition at 0.5 µM in assay [7] is 80 to 100%; in assay [8], 40 to 60%; in assay [9] it was 80 to 100%; in assay [10], 80 to 100%.

`O=C1CCN(N2Cc3cc(CN4CC=C(c5cccc(F)c5Cl)CC4)ccc3C2=O)C(=O)N1` [GT-08055, 1-(5-((4-(2-chloro-3-fluorophenyl)-3,6-dihydropyridin-1(2H)-yl)methyl)-1-oxoisoindolin-2-yl)dihydropyrimidine-2,4(1H,3H)-dione]: the “substrate protein remaining % WEE1” value in assay [1] is given as “A (0% ≤ substrate protein remaining % ≤ 80%)”. For the same compound, the “substrate protein remaining % IKZF1” value in [2] is “A (0% ≤ substrate protein remaining % ≤ 80%)”. In addition, the “substrate protein remaining % IKZF2” value in [3] is on record as “A (0% ≤ substrate protein remaining % ≤ 80%)”. Besides, the “substrate protein remaining % IKZF3” value in [4] is listed as “A (0% ≤ substrate protein remaining % ≤ 80%)”. In addition, in assay [5], the “substrate protein remaining % CK1α” value is “A (0% ≤ substrate protein remaining % ≤ 80%)”. Besides, the “substrate protein remaining % GSPT1” value in assay [6] is recorded as “A (0% ≤ substrate protein remaining % ≤ 80%)”. Besides, the inhibition at 0.01 µM was -10 to -5% in assay [7], 10 to 15% in [8], 25 to 30% in assay [9] and 18 to 25% in assay [10]. In addition, the inhibition at 0.5 µM lay within 80 to 100% in assay [7], 20 to 25% in assay [8], 80 to 100% in [9] and 60 to 80% in [10].

In the case of `O=C1CCN(N2Cc3cc(CN4CCC(c5ncnc6sc(-c7ccccc7)cc56)CC4)ccc3C2=O)C(=O)N1` [GT-08085, 1-(1-oxo-5-((4-(6-phenylthieno[2,3-d]pyrimidin-4-yl)piperidin-1-yl)methyl)isoindolin-2-yl)dihydropyrimidine-2,4(1H,3H)-dione], the “substrate protein remaining % WEE1” value in assay [1] was “B (80%< substrate protein remaining %≤ 100%)”. In addition, the “substrate protein remaining % IKZF1” value in assay [2] is recorded as “B (80%< substrate protein remaining %≤ 100%)”. Besides, the “substrate protein remaining % IKZF2” value in assay [3] is listed as “B (80%< substrate protein remaining %≤ 100%)”. The “substrate protein remaining % IKZF3” value in assay [4] was “B (80%< substrate protein remaining %≤ 100%)”. The “substrate protein remaining % CK1α” value in assay [5] is “A (0% ≤ substrate protein remaining % ≤ 80%)”. Moreover, in assay [6], the “substrate protein remaining % GSPT1” value is given as “A (0% ≤ substrate protein remaining % ≤ 80%)”. The inhibition at 0.01 µM in [11] was 20 to 40%; in [7], 30 to 42%; in assay [8], 25 to 30%; in assay [9], 30 to 40%; in assay [10], 25 to 40%. Also, the inhibition at 0.5 µM lay within 40 to 60% in [11]; 42 to 60% in [7]; 30 to 40% in assay [8]; 25 to 30% in assay [9]; 40 to 60% in assay [10].

In the case of `Cc1nc(C2CCN(Cc3ccc4c(c3)CN(N3CCC(=O)NC3=O)C4=O)CC2)c2ccsc2n1` [GT-08088, 1-(5-((4-(2-methylthieno[2,3-d]pyrimidin-4-yl)piperidin-1-yl)methyl)-1-oxoisoindolin-2-yl)dihydropyrimidine-2,4(1H,3H)-dione], the “substrate protein remaining % WEE1” value in assay [1] is reported as “A (0% ≤ substrate protein remaining % ≤ 80%)”. Moreover, the “substrate protein remaining % IKZF1” value in assay [2] is given as “B (80%< substrate protein remaining %≤ 100%)”. In addition, in assay [3], the “substrate protein remaining % IKZF2” value is listed as “B (80%< substrate protein remaining %≤ 100%)”. Also, the “substrate protein remaining % IKZF3” value in [4] is listed as “B (80%< substrate protein remaining %≤ 100%)”. Also, the “substrate protein remaining % CK1α” value in assay [5] is recorded as “A (0% ≤ substrate protein remaining % ≤ 80%)”. For the same compound, the “substrate protein remaining % GSPT1” value in assay [6] is reported as “A (0% ≤ substrate protein remaining % ≤ 80%)”. The inhibition at 0.01 µM in assay [11] is 20 to 40%; in assay [7], 42 to 60%; in [8], 25 to 30%; in [9], 40 to 60%; in [10] it was 18 to 25%. The inhibition at 0.5 µM in [11] fell in the range of 20 to 40%; in assay [7], 42 to 60%; in assay [8], 25 to 30%; in assay [9] it was 30 to 40%; in assay [10], 25 to 40%.

Take `O=C1CCN(N2C(=O)c3ccc(CN4CCN(c5ncnc6sccc56)CC4)cc3C2=O)C(=O)N1` [GT-08090, 2-(2,4-dioxotetrahydropyrimidin-1(2H)-yl)-5-((4-(thieno[2,3-d]pyrimidin-4-yl)piperazin-1-yl)methyl)isoindoline-1,3-dione]: the “substrate protein remaining % WEE1” value in [1] was “A (0% ≤ substrate protein remaining % ≤ 80%)”. Besides, the “substrate protein remaining % IKZF1” value in assay [2] is “B (80%< substrate protein remaining %≤ 100%)”. Besides, in [3], the “substrate protein remaining % IKZF2” value is listed as “B (80%< substrate protein remaining %≤ 100%)”. Moreover, in assay [4], the “substrate protein remaining % IKZF3” value is “B (80%< substrate protein remaining %≤ 100%)”. Further, the “substrate protein remaining % CK1α” value in assay [5] is given as “A (0% ≤ substrate protein remaining % ≤ 80%)”. In assay [6], the “substrate protein remaining % GSPT1” value is listed as “A (0% ≤ substrate protein remaining % ≤ 80%)”. In addition, the inhibition at 0.01 µM in assay [11] is 15 to 20%; in [7] it was 30 to 42%; in assay [8] it was 20 to 25%; in assay [9], 60 to 80%; in assay [10], 15 to 18%. Also, the inhibition at 0.5 µM lay in the range of 15 to 20% in assay [11]; 42 to 60% in assay [7]; 20 to 25% in assay [8]; 60 to 80% in assay [9]; 18 to 25% in assay [10].

On to `CC(C)c1cc2c(C3=CCN(Cc4ccc5c(c4)CN(N4CCC(=O)NC4=O)C5=O)CC3)ncnc2s1` [GT-08158, 1-(5-((4-(6-isopropylthieno[2,3-d]pyrimidin-4-yl)-3,6-dihydropyridin-1(2H)-yl)methyl)-1-oxoisoindolin-2-yl)dihydropyrimidine-2,4(1H,3H)-dione], for which the inhibition at 0.01 µM lay within 20 to 40% in assay [11]; 5 to 10% in assay [7]; 25 to 30% in [8]; 30 to 40% in assay [9]; 18 to 25% in [10]. Moreover, the inhibition at 0.5 µM in assay [11] was 40 to 60%; in assay [7], 80 to 100%; in [8] it was 60 to 80%; in assay [9], 100 to 110%; in assay [10] it was 80 to 100%.

For the compound `Cc1sc2ncnc(C3=CCN(Cc4ccc5c(c4)CN(N4CCC(=O)NC4=O)C5=O)CC3)c2c1C` [GT-08159, 1-(5-((4-(5,6-dimethylthieno[2,3-d]pyrimidin-4-yl)-3,6-dihydropyridin-1(2H)-yl)methyl)-1-oxoisoindolin-2-yl)dihydropyrimidine-2,4(1H,3H)-dione], the inhibition at 0.01 µM in assay [11] lay within 15 to 20%; in assay [7], 0 to 5%; in [8] it was 10 to 15%; in assay [9], 30 to 40%; in assay [10] it was 10 to 15%. Moreover, the inhibition at 0.5 µM in assay [11] fell in the range of 20 to 40%; in [7], 60 to 80%; in [8] it was 25 to 30%; in assay [9] it was 80 to 100%; in assay [10], 18 to 25%.

Regarding `Nc1cccc2c1CN(C1CCC(=O)NC1=O)C2=O` (stereo not shown) [lenalidomide, reference compound], the inhibition at 0.01 µM in assay [11] was 0 to 1%; in [7], 10 to 20%; in [8] it was 20 to 25%; in assay [9], 10 to 18%; in [10] it was 15 to 18%. Besides, the inhibition at 0.5 µM in assay [11] fell in the range of 5 to 10%; in assay [7] it was 30 to 42%; in assay [8], 15 to 20%; in assay [9], 10 to 18%; in assay [10], 10 to 15%.
